# In US6407085B1, “Medicament containing betasitosterol and/or phytosterol/betasitosterol mixtures” (priority 1997, dated 2002):
# Legend:
# [1] = dissolving in oils, paraffins, stearates, Vaseline or glycerin with heat; type: physicochemical; settings: for appearance in glycerin after cooling: after heating in glycerin; for appearance in oil after cooling: after heating in oil
# Protocol: The solubility of phytosterol/betasitosterol mixtures and betasitosterol metabolites can be accelerated and improved with respect to yield if the effective ingredients are treated in oil, paraffins, stearates, or Vaseline with the application of heat at temperatures of around 70° C. to 160° C., advantageously at 120° C. to 140° C., advantageously over a period of 30 minutes to 3 hours.
# If betasitosterol or sodium desoxycholate is heated in diverse natural and mineral oils, paraffins, commercially-available hypoallergenic stearate mixtures, or Vaseline (2 g substance in 100 ml) to 120° C., both substances dissolve fully within 90 minutes. Upon further heating to 150° C. (at 140° C., betasitosterol becomes liquid), betasitosterol dissolves up to around 15% in stearate mixtures, paraffins, and plant and mineral oils. […] In like manner, betasitosterol and sodium desoxycholate can be introduced into glycerin.
# [2] = cited from earlier work
# [3] = in vivo; cited from earlier work
# [4] = solubility in oils, chloroform and water at room temperature
# [5] = chloroform; cited from earlier work
# psoriasis = test: salve applied to the skin in psoriasis; type: in vivo
# Protocol: If phytosterol/betasitosterol mixtures, when they are dissolved in the above described form in oil, are stirred into a salve base alone or in a mixture with sodium desoxycholate in aqueous solution in a concentration of 0.5 to 2.0% and the salve base is applied to the skin, the itching of neurodermatitis usually is eased after only 2 to 5 minutes. Inflammation processes with redness and swelling are alleviated after 24 to 48 hours. Thus a histamine antagonistic as well as a cortisone-like effect is determined, but without the side effects of the hormone. In the case of psoriasis, the formation of scales is often reduced even in extreme cases only 24 hours after the first application, particularly with the use of the metabolite desoxycholic acid. Here again the use of such substances is completely unproblematic in contrast to a salve with a component of vitamin-D-like structure, which as a result of the resorption of the vitamin-D-like molecule can be applied only to a limited extent because of the danger of overdosing and thus the influencing of calcium metabolism.
# [6] = oral tolerability of betasitosterol esters; type: in vivo; settings: taken orally
compound,measurement,setting,value
CC[C@H](CC[C@@H](C)[C@H]1CC[C@H]2[C@@H]3CC=C4C[C@@H](O)CC[C@]4(C)[C@H]3CC[C@]12C)C(C)C [betasitosterol],appearance in glycerin after cooling,[1],slightly opalescent
same,appearance in oil after cooling,[1],slightly opalescent
same,dissolving in glycerin,[1]; heated to 120° C.,dissolve completely clear
same,amount dissolved,"[1]; heating to 150° C., stearate mixtures, paraffins, plant and mineral oils",around 15%
same,resorption quotient,[2]; healthy subjects,around 5%
same,blood count,[2]; oral administration of up to 24 g per day,10 mg
same,portion metabolized into cholic acid and chenodesoxycholic acid,[3],around 20%
same,solubility in oil on addition of sodium desoxycholate,[4],further improved
same,solubility in oil at room temperature,"[4]; linseed oil, safflower oil, neutral oil, standing longer than 24 h at room temperature",dissolves in sufficient quantity
same,solubility (D'ans-Lax),[5],soluble in chloroform
desoxycholic acid,time after first application until formation of scales is reduced,psoriasis,24 h
same,appearance in glycerin after cooling,[1],white pasty mass
same,appearance with safflower oil,[1]; heated to 120° C.,cloudy-opalescent emulsion
CC[C@H](CC[C@@H](C)[C@H]1CC[C@H]2[C@@H]3CC=C4C[C@@H](OC(=O)[C@H](O)[C@@H](O)[C@H](O)[C@H](O)CO)CC[C@]4(C)[C@H]3CC[C@]12C)C(C)C [betasitosterol gluconic acid ester],tolerability,[6],free of side effects and very well tolerated
sodium desoxycholate,appearance in glycerin after cooling,[1],remains clear
same,appearance in oil after cooling,[1],remains clear
same,dissolving in glycerin,[1]; heated to 120° C.,dissolve completely clear
same,water solubility,[4],relatively water soluble
